In ChEMBL document CHEMBL5291721, “A preclinical secondary pharmacology resource illuminates target-adverse drug reaction associations of marketed drugs” (Nat Commun, 2023):

Legend:
Thromboxane A2 receptor [1] = molecular target: T1, Thromboxane A2 receptor (Homo sapiens, UniProt P21731); type: functional, cell-based
T1 sequence (P21731 whole entry): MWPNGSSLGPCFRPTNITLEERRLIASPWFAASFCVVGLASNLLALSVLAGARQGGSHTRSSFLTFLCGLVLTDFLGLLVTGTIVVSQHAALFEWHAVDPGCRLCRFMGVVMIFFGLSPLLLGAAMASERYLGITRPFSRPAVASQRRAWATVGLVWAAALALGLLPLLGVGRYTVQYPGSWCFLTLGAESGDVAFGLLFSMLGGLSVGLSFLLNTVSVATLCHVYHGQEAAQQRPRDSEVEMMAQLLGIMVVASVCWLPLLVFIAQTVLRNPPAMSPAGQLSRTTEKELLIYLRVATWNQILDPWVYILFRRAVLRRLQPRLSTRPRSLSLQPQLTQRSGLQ

[2] = molecular target: Vascular endothelial growth factor receptor 2 (Homo sapiens, UniProt P35968); type: functional
[3] = molecular target: T2, Muscarinic acetylcholine receptor M4 (Homo sapiens, UniProt P08173)
T2 sequence (P08173 whole entry): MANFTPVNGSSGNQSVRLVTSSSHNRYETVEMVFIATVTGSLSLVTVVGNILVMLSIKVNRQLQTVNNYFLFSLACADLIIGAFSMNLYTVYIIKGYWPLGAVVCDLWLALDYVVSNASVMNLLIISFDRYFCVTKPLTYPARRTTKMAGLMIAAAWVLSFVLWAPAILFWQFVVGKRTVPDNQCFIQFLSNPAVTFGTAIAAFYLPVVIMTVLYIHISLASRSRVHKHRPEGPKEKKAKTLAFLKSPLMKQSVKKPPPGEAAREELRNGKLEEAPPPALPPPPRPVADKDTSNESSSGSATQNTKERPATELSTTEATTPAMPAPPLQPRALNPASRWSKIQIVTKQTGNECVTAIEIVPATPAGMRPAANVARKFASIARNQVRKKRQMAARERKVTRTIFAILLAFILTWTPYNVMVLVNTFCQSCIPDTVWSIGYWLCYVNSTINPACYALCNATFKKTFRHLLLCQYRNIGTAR

[4] = molecular target: T3, Muscarinic acetylcholine receptor M5 (Homo sapiens, UniProt P08912)
T3 sequence (P08912 whole entry): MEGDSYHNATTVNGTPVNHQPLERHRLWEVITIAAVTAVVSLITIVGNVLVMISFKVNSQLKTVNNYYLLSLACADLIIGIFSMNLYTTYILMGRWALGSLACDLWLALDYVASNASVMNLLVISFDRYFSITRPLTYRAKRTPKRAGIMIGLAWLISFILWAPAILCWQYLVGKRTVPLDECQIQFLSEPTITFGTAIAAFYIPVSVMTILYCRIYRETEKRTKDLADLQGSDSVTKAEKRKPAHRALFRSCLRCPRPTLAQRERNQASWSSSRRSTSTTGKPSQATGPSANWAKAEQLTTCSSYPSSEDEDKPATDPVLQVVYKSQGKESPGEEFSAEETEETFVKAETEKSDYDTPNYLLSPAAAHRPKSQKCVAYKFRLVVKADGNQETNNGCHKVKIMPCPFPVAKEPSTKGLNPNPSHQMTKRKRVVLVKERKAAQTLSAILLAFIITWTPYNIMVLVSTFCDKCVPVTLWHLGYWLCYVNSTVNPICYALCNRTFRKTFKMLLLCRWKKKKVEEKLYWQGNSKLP

Thromboxane A2 receptor [5] = molecular target: T1, Thromboxane A2 receptor; type: functional
Substance-K receptor = molecular target: T4, Substance-K receptor (Homo sapiens, UniProt P21452)
T4 sequence (P21452 whole entry): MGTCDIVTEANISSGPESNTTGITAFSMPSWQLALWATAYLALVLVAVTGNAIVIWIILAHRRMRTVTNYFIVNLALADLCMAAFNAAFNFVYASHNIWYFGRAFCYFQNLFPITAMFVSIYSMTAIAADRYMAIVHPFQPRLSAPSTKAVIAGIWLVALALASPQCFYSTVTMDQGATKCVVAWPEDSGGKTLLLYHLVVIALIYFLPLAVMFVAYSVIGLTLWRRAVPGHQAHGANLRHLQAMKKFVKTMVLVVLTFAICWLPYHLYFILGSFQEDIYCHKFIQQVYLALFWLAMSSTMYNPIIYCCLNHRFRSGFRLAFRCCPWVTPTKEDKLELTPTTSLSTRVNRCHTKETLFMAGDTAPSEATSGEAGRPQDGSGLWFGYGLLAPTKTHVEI

Androgen receptor = molecular target: T5, Androgen receptor (Rattus norvegicus, UniProt P15207); type: functional
T5 sequence (P15207 whole entry): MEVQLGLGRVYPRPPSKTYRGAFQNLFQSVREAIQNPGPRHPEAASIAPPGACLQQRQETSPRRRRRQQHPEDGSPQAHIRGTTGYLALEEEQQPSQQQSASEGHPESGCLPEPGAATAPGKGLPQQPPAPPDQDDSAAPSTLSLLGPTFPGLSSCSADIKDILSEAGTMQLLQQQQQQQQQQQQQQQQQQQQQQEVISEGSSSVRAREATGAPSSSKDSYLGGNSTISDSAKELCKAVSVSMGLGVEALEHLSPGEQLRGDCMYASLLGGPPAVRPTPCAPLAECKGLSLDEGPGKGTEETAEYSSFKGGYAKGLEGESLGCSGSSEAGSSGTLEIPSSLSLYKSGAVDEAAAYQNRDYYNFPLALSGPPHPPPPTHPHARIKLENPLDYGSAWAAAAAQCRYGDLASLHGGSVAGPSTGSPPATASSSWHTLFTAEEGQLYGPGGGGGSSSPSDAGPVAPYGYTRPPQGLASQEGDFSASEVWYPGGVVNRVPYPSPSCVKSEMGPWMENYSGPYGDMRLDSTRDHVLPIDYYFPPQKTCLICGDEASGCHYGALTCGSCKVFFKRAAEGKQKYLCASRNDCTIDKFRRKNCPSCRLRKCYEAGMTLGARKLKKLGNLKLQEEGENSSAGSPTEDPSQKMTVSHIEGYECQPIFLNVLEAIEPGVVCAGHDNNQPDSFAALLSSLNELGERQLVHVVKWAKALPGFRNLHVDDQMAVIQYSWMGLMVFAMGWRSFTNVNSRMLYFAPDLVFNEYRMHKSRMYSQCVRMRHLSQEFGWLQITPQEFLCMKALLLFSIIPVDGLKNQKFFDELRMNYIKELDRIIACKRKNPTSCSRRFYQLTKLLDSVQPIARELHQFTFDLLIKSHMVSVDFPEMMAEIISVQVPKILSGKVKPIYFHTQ

[6] = molecular target: Synaptic vesicular amine transporter (Rattus norvegicus, UniProt Q01827); type: functional
[7] = molecular target: Sodium channel protein type 5 subunit alpha (Homo sapiens, UniProt Q14524); type: functional, cell-based
[8] = molecular target: Voltage-dependent L-type calcium channel subunit alpha-1C (Homo sapiens, UniProt Q13936); type: functional, cell-based
Note: assay procedure not described here.

Sequence of Vascular endothelial growth factor receptor 2 (P35968 whole entry): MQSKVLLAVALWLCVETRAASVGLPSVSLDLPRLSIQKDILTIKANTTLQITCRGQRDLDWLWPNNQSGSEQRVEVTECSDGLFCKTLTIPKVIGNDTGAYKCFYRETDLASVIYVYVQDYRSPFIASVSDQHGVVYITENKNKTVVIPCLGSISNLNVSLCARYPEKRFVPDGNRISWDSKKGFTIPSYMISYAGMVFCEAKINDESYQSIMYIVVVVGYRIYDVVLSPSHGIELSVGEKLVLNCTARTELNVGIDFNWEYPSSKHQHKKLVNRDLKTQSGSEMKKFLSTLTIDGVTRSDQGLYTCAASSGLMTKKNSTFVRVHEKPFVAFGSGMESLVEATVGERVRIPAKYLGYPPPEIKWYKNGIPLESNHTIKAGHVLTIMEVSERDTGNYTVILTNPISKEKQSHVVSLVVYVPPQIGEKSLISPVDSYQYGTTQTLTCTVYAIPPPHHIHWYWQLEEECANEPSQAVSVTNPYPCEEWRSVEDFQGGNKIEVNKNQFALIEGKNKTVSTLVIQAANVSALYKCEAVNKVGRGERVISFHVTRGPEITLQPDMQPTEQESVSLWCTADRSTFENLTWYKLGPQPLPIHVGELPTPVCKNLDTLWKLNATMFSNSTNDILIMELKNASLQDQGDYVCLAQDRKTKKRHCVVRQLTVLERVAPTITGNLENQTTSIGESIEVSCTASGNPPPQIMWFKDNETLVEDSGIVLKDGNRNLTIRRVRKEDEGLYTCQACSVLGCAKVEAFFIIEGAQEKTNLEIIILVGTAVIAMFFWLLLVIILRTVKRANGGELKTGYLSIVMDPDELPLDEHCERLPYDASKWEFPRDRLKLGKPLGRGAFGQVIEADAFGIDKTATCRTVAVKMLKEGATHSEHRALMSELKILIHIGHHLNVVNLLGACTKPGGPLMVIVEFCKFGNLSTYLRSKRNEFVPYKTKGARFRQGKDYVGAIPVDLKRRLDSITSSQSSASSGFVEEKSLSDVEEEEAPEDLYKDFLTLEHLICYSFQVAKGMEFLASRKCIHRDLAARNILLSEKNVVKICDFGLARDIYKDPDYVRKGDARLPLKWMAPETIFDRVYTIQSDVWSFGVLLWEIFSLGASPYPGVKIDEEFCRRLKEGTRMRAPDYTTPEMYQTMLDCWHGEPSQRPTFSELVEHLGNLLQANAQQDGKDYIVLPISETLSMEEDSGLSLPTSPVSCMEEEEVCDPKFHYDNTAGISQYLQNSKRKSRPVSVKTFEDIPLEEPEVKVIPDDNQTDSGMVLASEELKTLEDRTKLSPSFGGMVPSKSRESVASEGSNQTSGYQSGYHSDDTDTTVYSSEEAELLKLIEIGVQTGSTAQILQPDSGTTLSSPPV
Sequence of Sodium channel protein type 5 subunit alpha (Q14524 whole entry): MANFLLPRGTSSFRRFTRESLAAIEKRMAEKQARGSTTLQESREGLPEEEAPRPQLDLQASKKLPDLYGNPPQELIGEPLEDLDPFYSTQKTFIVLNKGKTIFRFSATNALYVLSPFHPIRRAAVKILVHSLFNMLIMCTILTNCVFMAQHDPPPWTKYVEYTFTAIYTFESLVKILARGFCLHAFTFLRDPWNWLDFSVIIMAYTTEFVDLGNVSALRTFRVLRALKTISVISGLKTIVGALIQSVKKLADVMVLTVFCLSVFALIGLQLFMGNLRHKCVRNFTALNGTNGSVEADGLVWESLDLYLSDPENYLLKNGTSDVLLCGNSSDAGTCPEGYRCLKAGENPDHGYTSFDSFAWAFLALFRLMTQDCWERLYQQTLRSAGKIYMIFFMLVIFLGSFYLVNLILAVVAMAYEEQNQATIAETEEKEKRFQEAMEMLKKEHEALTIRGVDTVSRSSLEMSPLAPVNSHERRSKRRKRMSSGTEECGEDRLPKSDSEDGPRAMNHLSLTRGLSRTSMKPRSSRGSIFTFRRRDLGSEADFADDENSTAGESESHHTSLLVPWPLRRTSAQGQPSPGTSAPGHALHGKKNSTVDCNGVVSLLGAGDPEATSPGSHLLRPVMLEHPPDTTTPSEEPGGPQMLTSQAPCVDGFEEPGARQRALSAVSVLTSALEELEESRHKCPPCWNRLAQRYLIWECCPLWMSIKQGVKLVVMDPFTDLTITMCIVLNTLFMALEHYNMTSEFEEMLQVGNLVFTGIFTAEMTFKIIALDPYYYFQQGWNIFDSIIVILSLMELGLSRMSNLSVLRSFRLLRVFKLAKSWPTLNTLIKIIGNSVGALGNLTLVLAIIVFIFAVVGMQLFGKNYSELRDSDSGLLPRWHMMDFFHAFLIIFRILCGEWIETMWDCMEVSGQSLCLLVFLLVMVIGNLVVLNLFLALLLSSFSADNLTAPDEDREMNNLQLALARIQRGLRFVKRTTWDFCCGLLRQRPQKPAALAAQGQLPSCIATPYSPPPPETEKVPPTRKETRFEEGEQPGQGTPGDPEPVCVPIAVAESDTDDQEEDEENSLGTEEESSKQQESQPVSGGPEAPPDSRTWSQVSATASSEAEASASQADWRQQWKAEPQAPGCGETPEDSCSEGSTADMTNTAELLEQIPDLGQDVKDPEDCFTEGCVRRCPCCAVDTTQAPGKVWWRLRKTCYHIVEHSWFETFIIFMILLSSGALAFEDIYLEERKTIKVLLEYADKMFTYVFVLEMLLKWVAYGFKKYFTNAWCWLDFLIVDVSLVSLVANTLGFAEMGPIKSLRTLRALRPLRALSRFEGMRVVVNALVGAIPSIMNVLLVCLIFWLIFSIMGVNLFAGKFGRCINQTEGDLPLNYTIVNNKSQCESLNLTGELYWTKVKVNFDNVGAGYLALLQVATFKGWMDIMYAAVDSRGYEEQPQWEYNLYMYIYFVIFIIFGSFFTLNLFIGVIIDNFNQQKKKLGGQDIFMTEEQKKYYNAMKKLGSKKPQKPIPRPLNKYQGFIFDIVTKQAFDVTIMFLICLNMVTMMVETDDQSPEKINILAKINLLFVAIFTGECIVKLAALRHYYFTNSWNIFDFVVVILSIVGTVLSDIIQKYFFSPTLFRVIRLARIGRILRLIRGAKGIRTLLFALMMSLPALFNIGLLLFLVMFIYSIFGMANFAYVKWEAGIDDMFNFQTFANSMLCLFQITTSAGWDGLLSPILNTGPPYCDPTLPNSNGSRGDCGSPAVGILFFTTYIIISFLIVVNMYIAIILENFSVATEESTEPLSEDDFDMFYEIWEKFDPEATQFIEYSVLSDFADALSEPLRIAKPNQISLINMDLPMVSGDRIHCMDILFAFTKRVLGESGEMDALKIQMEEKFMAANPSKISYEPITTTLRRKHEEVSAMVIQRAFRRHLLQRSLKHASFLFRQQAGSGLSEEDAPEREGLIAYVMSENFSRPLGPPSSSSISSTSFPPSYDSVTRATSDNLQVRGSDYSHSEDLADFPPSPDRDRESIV
Sequence of Synaptic vesicular amine transporter (Q01827 whole entry): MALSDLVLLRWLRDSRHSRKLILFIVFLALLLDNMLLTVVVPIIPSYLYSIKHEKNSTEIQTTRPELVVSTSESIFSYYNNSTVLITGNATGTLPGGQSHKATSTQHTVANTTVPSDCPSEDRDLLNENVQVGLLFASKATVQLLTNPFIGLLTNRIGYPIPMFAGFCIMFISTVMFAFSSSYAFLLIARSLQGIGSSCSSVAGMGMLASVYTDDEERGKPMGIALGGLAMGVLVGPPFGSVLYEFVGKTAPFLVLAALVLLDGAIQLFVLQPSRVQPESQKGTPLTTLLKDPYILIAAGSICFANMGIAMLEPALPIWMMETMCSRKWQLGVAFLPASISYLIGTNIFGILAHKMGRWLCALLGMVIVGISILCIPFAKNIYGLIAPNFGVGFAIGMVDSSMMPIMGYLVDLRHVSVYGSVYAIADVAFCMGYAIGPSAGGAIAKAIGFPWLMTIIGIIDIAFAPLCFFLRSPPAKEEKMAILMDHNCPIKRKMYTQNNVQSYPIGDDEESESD

In the case of `CCOc1ccccc1OCC1CNCCO1` (stereo not given) [VILOXAZINE], the AC50 (Thromboxane A2 receptor [1]) is reported as > 30 µM, the AC50 [2] is reported as > 30 µM and the AC50 [3] is reported as > 10 µM. The AC50 [4] was > 10 µM, the AC50 (Thromboxane A2 receptor [5]) was > 30 µM and the AC50 (Substance-K receptor) was > 10 µM.

With `CN(C)CC/C=C1\c2ccccc2CSc2ccccc21` [DOTHIEPIN] the AC50 (Androgen receptor) was > 30 µM.

With `CC[C@@H](C(N)=O)N1CCCC1=O` the AC50 [6] was > 30 µM, the AC50 [7] was > 50 µM and the AC50 [8] was > 50 µM.
